# Assay results published in patent publication US20080112968A1, “NICOTINAMIDE COMPOSITIONS FOR TREATMENT OF SKIN DISEASES AND DISORDERS” (Dermena, priority 2006, published 2008).
# Experiment: Binding of pyridinium salts to sepharose immobilized heparin (spectrophotometric degree of binding)
# Conditions: water solution incubated 5 minutes with sepharose immobilized heparin 25 mg/mL
# Excerpt: Spectrophotometric methodologies were applied to estimate a degree of binding (DB) of the investigated compounds with heparin. This method is based on the absorption measurements of water solution of the investigated compound before and after a contact with heparin. The concentration was adjusted such that the absorbance in the region near the absorption maximum was around 1. The absorption spectra was collected for these prepared solutions. The same solutions of the investigated pyridinium salts were also incubated for 5 minutes with sepharose immobilized heparin (Heparin Sepharose CL-6B, Amersham Biosciences AB, Sweden) added in amount of 25 mg/mL. The suspensions of immobilized heparin with the analyzed compounds were then placed into Eppendorf microtubes and centrifuged at 13000 g for 4 minutes. The resulting clear solution over the sediment was introduced into a cuvette, and the absorption spectrum was measured. The degree of binding was estimated based on comparison of integrated area under the absorption curve for the solutions incubated and non-contacted with heparin.
# DB was calculated according to the equation (1):
# where: DB=degree of binding,
# IA=integrated area under absorption curve for sample without contact with immobilized heparin,
# IAHEP=integrated area under absorption curve for sample incubated with immobilized heparin.
row,Structure (SMILES),"Degree of binding, [%]"
1,"C[n+]1cccc(C(=O)NCO)c1 [Compound 4, 1-Methyl-N′-(hydroxymethyl)-nicotinamide]",20-45%
2,"C[n+]1cccc(C(N)=O)c1 [Compound 1, 1-Methylnicotinamide]",>45%
3,"C[n+]1cccc(C(=O)[O-])c1 [Compound 7, Trigonelline]",<20%
4,"NC(=O)c1cccnc1 [Compound 8, Nicotinamide]",<20%
5,"CC(=O)c1ccc[n+](C)c1 [Compound 5, 1-Methyl-3-acetylpyridine]",20-45%
6,"CCC[n+]1cccc(C(N)=O)c1 [Compound 6, 1-Propylnicotinamide]",20-45%
7,"CNC(=O)c1ccc[n+](C)c1 [Compound 2, 1,N′-Dimethylnicotinamide]",20-45%
8,"CCN(CC)C(=O)c1ccc[n+](C)c1 [Compound 3, 1-Methyl-N′,N′-diethylnicotin-amide]",20-45%

# Experiment: Solubility in water
# Assay type: physicochemical
# Conditions: not given
row,Structure (SMILES),solubility
1,"C[n+]1cccc(C(N)=O)c1 [Compound 1, 1-Methylnicotinamide]",> 600 mg/mL
